Measurements taken from ChEMBL document CHEMBL1130117, “Structure-activity relationships for the antileishmanial and antitrypanosomal activities of 1'-substituted 9-anilinoacridines” (J Med Chem, 1997).
pEC50, pIC50: −log10 of the molar value.

Legend:
[1] = Lipophilicity index (substitution method); type: physicochemical; conditions: octanol/water
Leishmania major = assay: Concentration required to reduce incorporation of [3H]TdR in drug-treated cultures of intracellular Leishmania major to 50% of controls; type: functional, organism-based
Jurkat = assay: Concentration required to reduce the growth of human Jurkat cells to 50% of control cultures; type: functional, cell-based
Trypanosoma cruzi = assay: Concentration required to reduce the number of macrophages infected with Trypanosoma cruzi amastigotes to 50% of untreated controls.; type: functional; conditions: read-out: ED50 (the source's name)
Trypanosoma brucei = assay: Concentration required to inhibit the growth of extracellular Trypanosoma brucei trypomastigotes to 50% of untreated controls.; type: functional; conditions: read-out: ED50 (the source's name)
Leishmania donovani = assay: Concentration required to reduce the number of macrophages infected with Leishmania donovani amastigotes to 50% of untreated controls.; type: functional; conditions: read-out: ED50 (the source's name)
[2] = relative lipophilicity determined where possible by computation by the fragment constant method; type: physicochemical; conditions: octanol/water

Structure (SMILES)	Index [1]	pIC50 (Leishmania major)	pIC50 (Jurkat)	pEC50 (Trypanosoma cruzi)	pEC50 (Trypanosoma brucei)	pEC50 (Leishmania donovani)	Liphophilicity [2]
Nc1ccc(Nc2c3ccccc3nc3ccccc23)cc1	-1.23	5.68					
CN(C)Cc1ccc(Nc2c3ccccc3nc3ccccc23)cc1	-0.15	6.00					
COc1cc(NS(C)(=O)=O)ccc1Nc1c2ccc(N)cc2nc2cc(N)ccc12	-3.66	< 5.52					
NS(=O)(=O)c1ccc(Nc2c3ccccc3nc3ccccc23)cc1	-1.82	< 5.52	5.30				
CCCCCCNc1ccc(Nc2c3ccccc3nc3ccccc23)cc1	2.38	6.26	4.77	5.66	5.41	4.91	
CCCCN(CCCC)c1ccc(Nc2c3ccccc3nc3ccccc23)cc1	3.56	6.46	5.70	< 5.00	5.84	< 5.00	
CCCCCCN(C)c1ccc(Nc2c3ccc(Cl)cc3nc3ccc(OC)cc23)cc1	3.73	5.74	< 4.70	< 5.52	5.37	< 5.52	
CCN(CC)c1ccc(Nc2c3ccccc3nc3ccccc23)cc1	1.18	6.40	6.00	< 5.52	< 6.52	6.12	
CCCCCCCc1ccc(Nc2c3ccccc3nc3ccccc23)cc1	3.99	6.10	4.89				
Nc1ccc2c(Nc3ccc(CN4CCCC4)cc3)c3ccc(N)cc3nc2c1		< 5.52	< 4.70				
CN(C)Cc1ccc(Nc2c3ccc(N)cc3nc3cc(N)ccc23)cc1	-2.61	5.30	4.92				
CN(C)c1ccc(Nc2c3ccccc3nc3ccccc23)cc1	0.18	6.05	6.00	< 5.52	5.89	5.44	
CN(C)Cc1ccc(Nc2c3ccc(Cl)cc3nc3cc(Cl)ccc23)cc1	1.27	5.70					
COc1cc(NS(C)(=O)=O)ccc1Nc1c2ccc(N(C)C)cc2nc2cc(N(C)C)ccc12	-0.84	< 5.52	5.52				
CN(C)c1ccc2c(Nc3ccccc3)c3ccc(N(C)C)cc3nc2c1	0.36	7.52					
Nc1ccc2c(=Nc3ccc(S(N)(=O)=O)cc3)c3ccc(N)cc3[nH]c2c1	-4.28	< 5.52					
CNc1ccc(Nc2c3ccccc3nc3ccccc23)cc1	-0.47	5.82					
CCCCCCN(C)c1ccc(Nc2c3ccccc3nc3ccccc23)cc1	3.04	6.52	5.52	< 6.00	6.48	5.92	
CCCCCCNc1ccc(Nc2c3ccc(Cl)cc3nc3ccc(OC)cc23)cc1	3.07	6.70	5.40	< 5.00	< 6.52	5.40	
NCCCCCCNS(=O)(=O)c1ccc(N=c2c3ccccc3[nH]c3ccccc23)cc1		< 5.52	< 4.70				
CNc1ccc(Nc2c3ccccc3nc3ccccc23)cc1OC(C)C		5.89	5.10				0.38 sigma pi
c1ccc(Nc2c3ccccc3nc3ccccc23)cc1	0	5.57	5.57				

Structure (SMILES)	Index [1]	pIC50 (Leishmania major)	pIC50 (Jurkat)	pEC50 (Trypanosoma cruzi)	pEC50 (Trypanosoma brucei)	pEC50 (Leishmania donovani)	Liphophilicity [2]
Nc1ccc(Nc2c3ccccc3nc3ccccc23)cn1	-2.74	5.41	5.44				
CCN(C)c1ccc(Nc2c3ccccc3nc3ccccc23)cc1	0.68	6.00	5.40	5.48	6.06	5.36	
CCCCCCNc1ccc(Nc2c3ccc(N(C)C)cc3nc3cc(N(C)C)ccc23)cc1	2.74	6.80	5.76	< 5.52	6.70	6.60	
CCCCCCN(CCCCCC)c1ccc(Nc2c3ccccc3nc3ccccc23)cc1	6.2	6.62	5.19	< 5.52	< 6.52	5.87	
CCCCCCN(C)c1ccc(Nc2c3ccc(N(C)C)cc3nc3cc(N(C)C)ccc23)cc1	3.4	7.15	5.76	6.92	< 6.52	7.52	
CCCCCCNc1ccc(Nc2c3ccccc3nc3ccccc23)cc1OC	2.36	6.40	5.46	5.74	6.19	5.92	
CCCCCCN(C)c1ccc(Nc2c3ccccc3nc3ccccc23)cc1OC	3.02	6.22	5.19	< 6.52	5.74	5.72	
CCCN(CCC)c1ccc(Nc2c3ccccc3nc3ccccc23)cc1	2.24	6.70	5.82	5.60	6.43	< 5.00	
CCCCCN(CCCCC)c1ccc(Nc2c3ccccc3nc3ccccc23)cc1	4.88	6.80	5.64	< 6.52	6.70	< 4.05	
NCCNCCc1ccc(Nc2c3ccccc3nc3ccccc23)cc1		6.15	5.40				
c1ccc2c(Nc3ccc(NC4CCCCC4)cc3)c3ccccc3nc2c1	2	6.26	< 4.82				
CCCCCCNc1ccc(Nc2c3ccc(Cl)cc3nc3ccc(OC)cc23)cc1OC	3.71	6.30	< 4.70	5.03	6.22	5.49	
CCN(CC)CCCNc1ccc(Nc2c3ccccc3nc3ccccc23)cc1	3.29	6.70	5.89				
CCN(CC)CCCc1ccc(Nc2c3ccccc3nc3ccccc23)cc1	4.22	6.52	> 6.00				
CCCCCNCc1ccc(Nc2c3ccccc3nc3ccccc23)cc1		5.70	5.82				
CCCCCCOc1ccc(Nc2c3ccccc3nc3ccccc23)cc1	2.87	6.00	5.30				
CCN(C)c1ccc(Nc2c3ccccc3nc3ccccc23)cc1OC	0.66	< 5.52	4.78				
c1ccc2c(Nc3ccc(NC4CCCC4)cc3)c3ccccc3nc2c1	1.8	6.35	5.30				
c1ccc2c(Nc3ccc(CN4CCCC4)cc3)c3ccccc3nc2c1		6.70	5.70				
CCN(CC)CCNc1ccc(Nc2c3ccccc3nc3ccccc23)cc1OC	3.27	5.80	5.82				
CNc1ccc(Nc2c3ccccc3nc3ccccc23)cc1OC	-0.49	5.44	4.96				
COc1cc(NS(C)(=O)=O)ccc1Nc1c2ccccc2nc2ccccc12 [AMSACRINE]	-1.2	5.82	6.70				
